Measurements as given in patent US5492890A, “Polypeptides for promoting cell attachment” (The Scripps Research Institute, priority 1991, dated 1996).

Key:
GPIIb-IIIa [1] = molecular target: T1, GPIIb-IIIa (Homo sapiens, UniProt P05106+P08514); assay: Competition assay: synthetic polypeptide inhibition of biotinylated Fn binding to purified GPIIb-IIIa; details: for inhibition of Fn binding to GPIIb-IIIa: tested at 200 μM polypeptide
T1 construct: platelet membrane GPIIb-IIIa protein from lysed platelets; from tissue
Description: The competition assays are performed as described by Charo et al., J. Biol. Chem., 266:1415-1421 (1991). The competition assay is performed by first admixing into individual wells of a 96 well microtiter plate (Immunlon, Dynatech) 10 μg/ml of purified GPIIb-IIIa, prepared in Example 1, diluted in HEPES-saline buffer, pH 7.4, consisting of 10 mM HEPES, 150 mM NaCl 1 mM CaCl2 and 1 mMMgCl2. The plates are maintained for 16 hours at 4° C. to allow the purified receptor to adsorb onto the walls of the wells. The receptor-coated wells are then washed two times with Modified Tyrode's buffer, prepared as described in Example 1, to remove any non-bound receptor from the receptor-coated wells. Non-receptor-occupied sites on the microtiter wells are blocked by admixing 5% BSA dissolved in Modified Tyrode's buffer into each well and maintaining the plate for 2 hours at room temperature.
After removing the blocking solution and washing the blocked wells as described above, 50 μl of a 10 nM solution of biotinylated Fn in Modified Tyrode's buffer is admixed into each well in the presence of polypeptides prepared in Example 9a ranging in concentration from 0.1 μM to 200 μM polypeptide to form a solid-liquid phase receptor-protein admixture. Fn admixed in the absence of polypeptides served as a positive control for the competition assay. Purified Fn is prepared as described in Example 2.
The resultant purified Fn is then biotinylated as described by Dale et al., Blood, 77:1096-1099 (1991). Briefly, for biotinylation, Fn is first dialyzed into 0.1M NaHCO3 containing 0.1M NaCl at pH 8.0 and centrifuged at 100,000× g for 30 minutes at 4° C. to remove any particulate matter. The protein concentration is adjusted to 0.5 mg/ml in 50 mM sodium borate at pH 8.5. […]
The Fn-peptide admixtures are maintained in GPIIb-IIIa-coated wells for 2 hours at room temperature to allow the biotinylated Fn to bind to the receptor. Following this maintenance period, the reacted wells are washed as described above and the amount of biotinylated Fn bound to GPIIb-IIIa is determined by admixing 0.1 ml avidin bound to biotinylated horseradish peroxidase H (Hrp) (Sigma, St. Louis, Mo.) at a 1:2000 dilution to form an avidin-biotinylated Fn admixture. […] Excess avidin Hrp is removed by washing as described and the presence of biotinylated Fn bound to purified GPIIb-IIIa is detected by admixture of 50 μl of freshly prepared chromogenic substrate solution containing 4.0 mg/ml 0-phenylenediamine and 0.012% (v/v) hydrogen peroxide in CP buffer as described in Example 3a. After maintaining the color developing-reaction admixture for 10 minutes at 20° C., the reaction is stopped with the admixture of 2N H2 SO4 and the stopped reactions are measured for absorbance as described in Example 3a.

GPIIb-IIIa [2] = molecular target: T1, GPIIb-IIIa; assay: Direct binding of 125I-labelled ligands to microtiter wells coated with purified GPIIb-IIIa
Source text: To determine if the insert coded polypeptide containing fibronectin residues 1235-1436 bound GPIIb-IIIa, the capacity of microtiter wells coated with purified GPIIb-IIIa to bind the radiolabelled fusion-protein preparation was ascertained (Table 3). In addition, the radiolabelled material bound to the insolubilized GPIIb-IIIa was recovered and analyzed by SDS-PAGE followed by radioautography. […] The isolated protein products were a mixture of insert coded polypeptides containing fusion protein and maltose binding protein breakdown products. Only those bands containing the insert-coded polypeptide bound to the insolubilized GPIIb-IIIa and that binding was inhibitable by either EDTA or the monoclonal antibody FnI-16.

GPIIb-IIIa [3] = molecular target: T1, GPIIb-IIIa; assay: Inhibition of 125I-Fn binding to immobilized GPIIb-IIIa by fusion proteins (competition binding); details: varying concentrations, FIG. 3
Description: The ability of a fusion protein or polypeptide of the present invention to inhibit the binding interaction between GPIIb-IIIa and either fibronectin or fibrinogen was measured by competition binding to immobilized GPIIb-IIIa.
Incubate the GPIIb-IIIa in the plate for 16 hours at 4° C., then the unbound material is removed from the wells which are then blocked with 150 μl of 5% BSA in the same buffer for 1 hour at room temperature. Wash the wells three times with 150 μl of Tyrode's buffer with 5 mM HEPES, 1 mM MgCl2, 1 mg/ml dextrose, 1 mg/ml BSA. […] Incubate 4 hours to overnight at room temperature (with lead shield).
Carefully remove radioactive samples and wash 3 times with 150 μl Tyrodes with 5 mM HEPES, 1 mMMgCl2, 1 mg/ml dextrose, 1 mg/ml BSA. Count with a Gamma Counter and elute by boiling in SDS-PAGE loading Buffer.
In an alternative embodiment, non-radioactive Fn may be used instead of radioactive, and detected by reacting with an appropriate anti-Fn antibody and HRP-conjugated secondary antibody. Using this variation, each antibody is incubated with the washed plate for 1 hr. The anti-Fn antibody is titrated, but a 1:1000 dilution of HRP-conjugated antibody from most manufacturers works fine.

How did the “inhibition of Fn binding to GPIIb-IIIa” value (GPIIb-IIIa [1]) turn out when “(2:73-274): polypeptide of SEQ ID NO 2 residues 73-274, Fn residues 1235-1436” was run?
The value was “inhibit Fn binding to GPIIb-IIIa”.

Which “inhibition of Fn binding to GPIIb-IIIa” value (GPIIb-IIIa [1]) does the source give for “(2:197-274): polypeptide of SEQ ID NO 2 residues 197-274, Fn residues 1359-1436” here?
Its value is “inhibit Fn binding to GPIIb-IIIa”.

Which results are given for “(2:248-274): synthetic polypeptide of SEQ ID NO 2 residues 248-274, Fn residues 1410-1436 (IGQQSTVSDVPRDLEVVAATPTSLLIS)”?
polypeptide concentration for maximal inhibition of Fn binding to GPIIb-IIIa (GPIIb-IIIa [1]; 10 nM biotinylated Fn): approximately 200 μM; competitive inhibition of Fn binding to purified GPIIb-IIIa (GPIIb-IIIa [1]; 10 nM biotinylated Fn, 0.1 to 200 μM polypeptide): competitively inhibits

How did the “binding of radiolabelled ligand to insolubilized GPIIb-IIIa” value (GPIIb-IIIa [2]; GPIIb-IIIa coated wells) turn out when Fibronectin was run?
The value was “Specific binding”.

What about the “125I-labelled ligand bound to GPIIb-IIIa” value (GPIIb-IIIa [2]; inhibitor 2 mM EDTA) of the same substance?
The value was 8 Counts × 10^-3.

And the “125I-labelled ligand bound to GPIIb-IIIa” value (GPIIb-IIIa [2]; inhibitor Mab 16.12)?
The value was 12 Counts × 10^-3.

What about the “125I-labelled ligand bound to GPIIb-IIIa” value (GPIIb-IIIa [2]; no inhibitor) of the same substance?
Its value is 42 Counts × 10^-3.

What about the “inhibition of fibronectin binding to purified GPIIb-IIIa” value (GPIIb-IIIa [3]) of the same substance?
Its value is “inhibited fibronectin binding”.
